Reference: patent US7772241B2, “Variolin derivatives and their use as antitumor agents” (Pharma Mar S.A., priority 2001, dated 2010)

How the values were obtained:
HT-29 = test: Inhibition of cells growth by colorimetric (SRB) assay, HT-29; conditions: for GI50 / CC50: Homo sapiens, HT-29, 48 h; for GI50: read-out: GI50 HT-29, SRB assay, 48 hours exposure; for CC50: read-out: LC50 HT-29, SRB assay, 48 hours exposure; for TGI HT-29: SRB assay, 48 hours exposure
Text: (§1) The finality of these assays is to interrupt the growth of a “in vitro” tumor cell culture by means a continued exhibition of the cells to the sample to be testing.
(§2) This form of the assay employs 96 well cell culture microplates of 9 mm diameter (Faircloth, 1988; Mosmann, 1983). Most of the cell lines are obtained from American Type Culture Collection (ATCC) derived from different human cancer types.
(§3) Cells are maintained in RPMI 1640 10% FBS, supplemented with 0.1 g/l penicillin and 0.1 g/l streptomycin sulphate and then incubated at 37° C., 5% CO2 and 98% humidity. For the experiments, cells were harvested from subconfluent cultures using trypsin and resuspended in fresh medium before plating.
(§4) Cells are seeded in 96 well microtiter plates, at 5×10^3 cells per well in aliquots of 195 μl medium, and they are allowed to attach to the plate surface by growing in drug free medium for 18 hours. Afterward, samples are added in aliquots of 5 μl in a ranging from 10 to 10^−8 μg/ml, dissolved in DMSO/EtOH/PBS (0.5:0.5:99). After 48 hours exposure, the antitumor effect are measured by the SRB methodology: cells are fixed by adding 50 μl of cold 50% (wt/vol) trichloroacetic acid (TCA) and incubating for 60 minutes at 4° C. Plates are washed with deionized water and dried. One hundred μl of SRB solution (0.4% wt/vol in 1% acetic acid) is added to each microtiter well and incubated for 10 minutes at room temperature. Unbound SRB is removed by washing with 1% acetic acid. Plates are air dried and bound stain is solubilized with Tris buffer. Optical densities are read on a automated spectrophotometric plate reader at a single wavelength of 490 nm.
(§5) The values for mean +/−SD of data from triplicate wells are calculated. Some parameters for cellular responses can be calculated: GI=growth inhibition, TGI=total growth inhibition (cytostatic effect) and LC=cell killing (cytotoxic effect).

A-549 = test: Inhibition of cells growth by colorimetric (SRB) assay, A-549; conditions: for GI50 / CC50: Homo sapiens, A549, 48 h; for GI50: read-out: GI50 A-549, SRB assay, 48 hours exposure; for CC50: read-out: LC50 A-549, SRB assay, 48 hours exposure; for TGI A-549: SRB assay, 48 hours exposure
Text: as §1, §2, §3, §4, §5

SK-OV-3 = test: Inhibition of cells growth by colorimetric (SRB) assay, SK-OV-3; conditions: for GI50 / CC50: Homo sapiens, SK-OV-3, 48 h; for GI50: read-out: GI50 SKOV-3, SRB assay, 48 hours exposure; for CC50: read-out: LC50 SKOV-3, SRB assay, 48 hours exposure; for TGI SKOV-3: SRB assay, 48 hours exposure
Text: as §1, §2, §3, §4, §5

LoVo = test: Inhibition of cells growth by colorimetric (SRB) assay, LoVo; conditions: for GI50 / CC50: Homo sapiens, LoVo, 48 h; for GI50: read-out: GI50 LOVO, SRB assay, 48 hours exposure; for CC50: read-out: LC50 LOVO, SRB assay, 48 hours exposure; for TGI LOVO: SRB assay, 48 hours exposure
Text: as §1, §2, §3, §4, §5

PANC-1 = test: Inhibition of cells growth by colorimetric (SRB) assay, PANC-1; conditions: for GI50 / CC50: Homo sapiens, PANC-1, 48 h; for GI50: read-out: GI50 PANC-1, SRB assay, 48 hours exposure; for CC50: read-out: LC50 PANC-1, SRB assay, 48 hours exposure; for TGI PANC-1: SRB assay, 48 hours exposure
Text: as §1, §2, §3, §4, §5

K-562 = test: Inhibition of cells growth by colorimetric (SRB) assay, K-562; conditions: for GI50 / CC50: Homo sapiens, K562, 48 h; for GI50: read-out: GI50 K-562, SRB assay, 48 hours exposure; for CC50: read-out: LC50 K-562, SRB assay, 48 hours exposure; for TGI K-562: SRB assay, 48 hours exposure
Text: as §1, §2, §3, §4, §5

LoVo-Dox = test: Inhibition of cells growth by colorimetric (SRB) assay, LoVo-Dox; conditions: for GI50 / CC50: Homo sapiens, 48 h; for GI50: read-out: GI50 LOVO-DOX, SRB assay, 48 hours exposure; for CC50: read-out: LC50 LOVO-DOX, SRB assay, 48 hours exposure; for TGI LOVO-DOX: SRB assay, 48 hours exposure
Text: as §1, §2, §3, §4, §5

LNCaP = test: Inhibition of cells growth by colorimetric (SRB) assay, LNCaP; conditions: for GI50 / CC50: Homo sapiens, LNCaP, 48 h; for GI50: read-out: GI50 LN-caP, SRB assay, 48 hours exposure; for CC50: read-out: LC50 LN-caP, SRB assay, 48 hours exposure; for TGI LN-caP: SRB assay, 48 hours exposure
Text: as §1, §2, §3, §4, §5

IGROV-1 = test: Inhibition of cells growth by colorimetric (SRB) assay, IGROV-1; conditions: for GI50 / CC50: Homo sapiens, IGROV-1, 48 h; for GI50: read-out: GI50 IGROV, SRB assay, 48 hours exposure; for CC50: read-out: LC50 IGROV, SRB assay, 48 hours exposure; for TGI IGROV: SRB assay, 48 hours exposure
Text: as §1, §2, §3, §4, §5

DU-145 = test: Inhibition of cells growth by colorimetric (SRB) assay, DU-145; conditions: for GI50 / CC50: Homo sapiens, DU-145, 48 h; for GI50: read-out: GI50 DU-145, SRB assay, 48 hours exposure; for CC50: read-out: LC50 DU-145, SRB assay, 48 hours exposure; for TGI DU-145: SRB assay, 48 hours exposure
Text: as §1, §2, §3, §4, §5

SK-MEL-28 = test: Inhibition of cells growth by colorimetric (SRB) assay, SK-MEL-28; conditions: for GI50 / CC50: Homo sapiens, SK-MEL-28, 48 h; for GI50: read-out: GI50 MEL-28, SRB assay, 48 hours exposure; for CC50: read-out: LC50 MEL-28, SRB assay, 48 hours exposure; for TGI MEL-28: SRB assay, 48 hours exposure
Text: as §1, §2, §3, §4, §5

IGROV-ET = test: Inhibition of cells growth by colorimetric (SRB) assay, IGROV-ET; conditions: for GI50 / CC50: Homo sapiens, 48 h; for GI50: read-out: GI50 IGROV-ET, SRB assay, 48 hours exposure; for CC50: read-out: LC50 IGROV-ET, SRB assay, 48 hours exposure; for TGI IGROV-ET: SRB assay, 48 hours exposure
Text: as §1, §2, §3, §4, §5

c1ccc(CNc2nccc(-c3c4cccnc4n4c(NCc5ccccc5)nccc34)n2)cc1 [Compound 28]
GI50 (HT-29): 109 µM
CC50 (HT-29): 109 µM
TGI HT-29 (HT-29): 1.09E−04
GI50 (A-549): 109 µM
CC50 (A-549): 109 µM
TGI A-549 (A-549): 1.09E−04

CC(C)c1c2cccnc2n2c(N)nccc12 [Compound 66]
GI50 (SK-OV-3): 15.7 µM
CC50 (SK-OV-3): ≥ 44.2 µM
TGI SKOV-3 (SK-OV-3): 3.04E−05
GI50 (HT-29): 17.9 µM
CC50 (HT-29): ≥ 44.2 µM
TGI HT-29 (HT-29): 4.42E−05
GI50 (LoVo): 17.1 µM
CC50 (LoVo): ≥ 44.2 µM
TGI LOVO (LoVo): 4.42E−05
GI50 (PANC-1): 8 µM
CC50 (PANC-1): ≥ 44.2 µM
TGI PANC-1 (PANC-1): 2.16E−05
GI50 (K-562): 21.6 µM
CC50 (K-562): ≥ 44.2 µM
TGI K-562 (K-562): 4.42E−05
GI50 (LoVo-Dox): 2.22 µM
CC50 (LoVo-Dox): ≥ 44.2 µM
TGI LOVO-DOX (LoVo-Dox): 4.42E−05
GI50 (LNCaP): 12.5 µM
CC50 (LNCaP): ≥ 44.2 µM
TGI LN-caP (LNCaP): 2.55E−05
GI50 (IGROV-1): 9.99 µM
CC50 (IGROV-1): 30.4 µM
TGI IGROV (IGROV-1): 1.74E−05
GI50 (A-549): 16.1 µM
CC50 (A-549): ≥ 44.2 µM
TGI A-549 (A-549): 4.42E−05
GI50 (DU-145): 10 µM
CC50 (DU-145): ≥ 44.2 µM
TGI DU-145 (DU-145): 2.59E−05
GI50 (SK-MEL-28): 8.84 µM
CC50 (SK-MEL-28): 39.6 µM
TGI MEL-28 (SK-MEL-28): 1.87E−05
GI50 (IGROV-ET): 9.81 µM
CC50 (IGROV-ET): 39.8 µM
TGI IGROV-ET (IGROV-ET): 1.98E−05

COc1ccc(CNc2nccc(-c3c4c(OCc5ccccc5)ccnc4n4c(NCc5ccc(OC)cc5)nccc34)n2)cc1 [Compound 53]
GI50 (HT-29): 16 µM
CC50 (HT-29): 16 µM
TGI HT-29 (HT-29): 1.60E−05
GI50 (A-549): 16 µM
CC50 (A-549): 16 µM
TGI A-549 (A-549): 1.60E−05

Nc1nccc2c(-c3ccnc(O)n3)c3c(O)ccnc3n12 [Compound 106]
GI50 (SK-OV-3): 5.73 µM
CC50 (SK-OV-3): 24.5 µM
TGI SKOV-3 (SK-OV-3): 1.51E−05
GI50 (HT-29): 24.5 µM
CC50 (HT-29): 24.5 µM
TGI HT-29 (HT-29): 2.45E−05
GI50 (LoVo): 24.5 µM
CC50 (LoVo): 24.5 µM
TGI LOVO (LoVo): 2.45E−05
GI50 (PANC-1): 6.44 µM
CC50 (PANC-1): 24.5 µM
TGI PANC-1 (PANC-1): 1.71E−05
GI50 (K-562): 10.6 µM
CC50 (K-562): 24.5 µM
TGI K-562 (K-562): 2.45E−05
GI50 (LoVo-Dox): 8.18 µM
CC50 (LoVo-Dox): 24.5 µM
TGI LOVO-DOX (LoVo-Dox): 2.45E−05
GI50 (LNCaP): 6.42 µM
CC50 (LNCaP): 24.5 µM
TGI LN-caP (LNCaP): 1.64E−05
GI50 (IGROV-1): 6.69 µM
CC50 (IGROV-1): 24.1 µM
TGI IGROV (IGROV-1): 1.27E−05
GI50 (A-549): 18.2 µM
CC50 (A-549): 24.5 µM
TGI A-549 (A-549): 2.45E−05
GI50 (DU-145): 16.2 µM
CC50 (DU-145): 24.5 µM
TGI DU-145 (DU-145): 2.45E−05
GI50 (SK-MEL-28): 8.87 µM
CC50 (SK-MEL-28): 24.5 µM
TGI MEL-28 (SK-MEL-28): 2.45E−05
GI50 (IGROV-ET): 4.97 µM
CC50 (IGROV-ET): 24.4 µM
TGI IGROV-ET (IGROV-ET): 1.10E−05

COc1ccc2nc3c(cc2c1)c(-c1ccnc(SC)n1)c1ccnc(SC)n13 [Compound 17b]
GI50 (HT-29): 7.16 µM
CC50 (HT-29): 19.1 µM
TGI HT-29 (HT-29): 1.19E−05
GI50 (A-549): 7.16 µM
CC50 (A-549): 19.1 µM
TGI A-549 (A-549): 1.19E−05

CSc1nccc(-c2c3c(OCc4ccccc4)ccnc3n3c(SC)nccc23)n1 [Compound 52]
GI50 (HT-29): 5.36 µM
CC50 (HT-29): 15.7 µM
TGI HT-29 (HT-29): 9.20E−06
GI50 (A-549): 5.81 µM
CC50 (A-549): 15.7 µM
TGI A-549 (A-549): 9.56E−06

Nc1nccc(-c2c3c(OCc4ccccc4)ccnc3n3c(N)nccc23)n1 [Compound 96]
GI50 (HT-29): 16.2 µM
CC50 (HT-29): 26.1 µM
TGI HT-29 (HT-29): 2.61E−05
GI50 (A-549): 12.3 µM
CC50 (A-549): 26.1 µM
TGI A-549 (A-549): 2.61E−05
